The record followed here is ChEMBL document CHEMBL1201862, “PubChem BioAssay data set” (2004).

Test systems include CAKI-1; SNB-19; SK-MEL-28; SF-539; Hs-578T; HL-60; HCC 2998; SR; NCI-H226; HOP-92; NCI-H23; IGROV-1; HCT-116; A549; Malme-3M; M14; SK-OV-3; MDA-N; NCI-H522.
Common to all, as to test: NCI tumour cell line growth inhibition, 48 h

Structures are written as SMILES.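 Briefly, cells in 96-well plates were exposed to five compound concentrations for 48 h, and endpoints were estimated by linear interpolation. GI50: concentration for 50% inhibition of growth.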 Active and inactive are the calls of the source. Rule as the data show it: active = GI50 up to about 1.1 µM and inactive = higher.

As for `Cc1cc(C)nc(NC(=S)Nc2ccc([N+](=O)[O-])cc2)c1`, the GI50 in the experiment on CAKI-1, in the experiment with SNB-19, in the experiment on SK-MEL-28, in the experiment with SF-539, in the experiment with Hs-578T and in the experiment on HL-60 was > 100 µM (inactive) in each case. Besides, the GI50 in the experiment on HCC 2998, in the experiment on SR, in the experiment on NCI-H226, with HOP-92, in the experiment with NCI-H23 and in the experiment on IGROV-1 was > 100 µM (inactive) throughout. For the same compound, in the experiment on HCT-116, the GI50 was > 100 µM (inactive).
On to `CN(C)CCN(C)P12(Oc3ccccc3O1)Oc1c(Cl)c(Cl)c(Cl)c(Cl)c1O2`, for which the GI50 with SNB-19 was 56.6 µM (inactive); with SK-MEL-28, > 100 µM (inactive); in the experiment on A549, 46.9 µM (inactive); in the experiment on HL-60, 18.8 µM (inactive); with Malme-3M, 46.6 µM (inactive); in the experiment on HCC 2998, > 100 µM (inactive). The GI50 was 50.5 µM (inactive) in the experiment with M14; 35.2 µM (inactive) with SR; > 100 µM (inactive) with SK-OV-3; > 100 µM (inactive) in the experiment on NCI-H226; 22.1 µM (inactive) in the experiment with HOP-92; 35.8 µM (inactive) in the experiment on NCI-H23. In addition, the GI50 in the experiment with IGROV-1 is 45.4 µM (inactive); in the experiment with MDA-N, 48.4 µM (inactive); with HCT-116, 33.2 µM (inactive).
Take `CCCCN(CCCC)CC(O)c1cc(-c2ccc(C(F)(F)F)cc2)nc(-c2ccc(C(F)(F)F)cc2)c1` (configuration not stated): the GI50 in the experiment with CAKI-1 was > 100 µM (inactive); in the experiment on SNB-19, > 100 µM (inactive); in the experiment on SK-MEL-28 it was > 100 µM (inactive); with SF-539, > 100 µM (inactive); in the experiment with HL-60, 32 µM (inactive); in the experiment on Malme-3M, 44 µM (inactive). Also, the GI50 is 22.6 µM (inactive) in the experiment with HCC 2998; 91.4 µM (inactive) with M14; > 100 µM (inactive) in the experiment on SR; > 100 µM (inactive) in the experiment with SK-OV-3; 61.5 µM (inactive) in the experiment on HOP-92; > 100 µM (inactive) in the experiment on NCI-H23. Further, the GI50 in the experiment with IGROV-1 is > 100 µM (inactive); in the experiment with HCT-116 it was 61.8 µM (inactive); in the experiment with NCI-H522 it was 75.3 µM (inactive).
Regarding `CC(C)c1cccc(C(C)C)c1NC(=O)C(=O)C(C(=O)c1ccccc1-c1ccccc1)C1OC(=O)c2ccccc21` (configuration not stated), the GI50 was 30.1 µM (inactive) with CAKI-1; 16.8 µM (inactive) in the experiment with SNB-19; 20.1 µM (inactive) in the experiment on SK-MEL-28; 12.6 µM (inactive) with SF-539; 28 µM (inactive) with A549; 14.8 µM (inactive) in the experiment on Malme-3M. Besides, the GI50 is 17.6 µM (inactive) in the experiment with HCC 2998; 22.6 µM (inactive) with SR; > 10 µM (inactive) in the experiment with NCI-H226; 1.25 µM (inactive) in the experiment on NCI-H23; 24.3 µM (inactive) in the experiment with IGROV-1; 24.9 µM (inactive) in the experiment on HCT-116. Moreover, the GI50 in the experiment on NCI-H522 is 15.5 µM (inactive).
As for `COc1ccc(-c2cc(-c3ccc(Nc4ccnc5cc(Cl)ccc45)cc3)nc(N)c2C#N)c2ccccc12`, the GI50 in the experiment with CAKI-1, with SNB-19, in the experiment on SK-MEL-28, in the experiment on SF-539, in the experiment with A549 and in the experiment with Malme-3M was > 100 µM (inactive) each time. In addition, the GI50 in the experiment with HCC 2998, in the experiment with M14, in the experiment with SR, in the experiment with NCI-H226, in the experiment on NCI-H23 and in the experiment on IGROV-1 was > 100 µM (inactive) in each case. Moreover, the GI50 in the experiment on MDA-N, in the experiment with HCT-116 and in the experiment with NCI-H522 was > 100 µM (inactive) throughout.
As for `CCOC(OCC)[C@@H]1C[C@@H]2N(O[C@H](OC3CCCC3(c3ccccc3)c3ccccc3)[C@H](OC(C)=O)[C@@]2(CC)Cc2ccc(OC)c(OC)c2)O1` (some centres not stated), the GI50 in the experiment on CAKI-1, with SNB-19, in the experiment on SK-MEL-28, in the experiment with SF-539, with A549 and in the experiment on HCC 2998 was > 100 µM (inactive) each time. In addition, the GI50 in the experiment with M14 was > 100 µM (inactive); in the experiment on SR, 84.7 µM (inactive); in the experiment with SK-OV-3 it was > 100 µM (inactive); in the experiment on NCI-H226 it was > 100 µM (inactive); in the experiment on NCI-H23 it was > 100 µM (inactive); in the experiment with IGROV-1, > 100 µM (inactive). The GI50 in the experiment with MDA-N, in the experiment on HCT-116 and in the experiment with NCI-H522 was > 100 µM (inactive) in each case.
Take `CC(C)c1cc(C(C)C)c(Cl)c(Cl)c1O.CC(C)c1cc(Cl)c(O)c(C(C)C)c1Cl`: the GI50 with CAKI-1 is 20.5 µM (inactive); in the experiment with SNB-19, 23 µM (inactive); with SK-MEL-28 it was 24.1 µM (inactive); in the experiment on SF-539, 20 µM (inactive); in the experiment with Hs-578T, 16.6 µM (inactive); in the experiment with A549, 40.2 µM (inactive). For the same compound, the GI50 in the experiment with HL-60 was 18.3 µM (inactive); in the experiment on Malme-3M, 24.8 µM (inactive); in the experiment with HCC 2998, 28.8 µM (inactive); with M14, 71.8 µM (inactive); with SR it was 9.25 µM (inactive); in the experiment with HOP-92 it was 10.5 µM (inactive). Also, the GI50 in the experiment with NCI-H23 is 39.2 µM (inactive); with IGROV-1 it was 21.6 µM (inactive); in the experiment on HCT-116, 76.7 µM (inactive); in the experiment with NCI-H522, 14 µM (inactive).
In the case of `CCN(CC)CCn1c(C(C)(C)C)nc2ccccc21`, the GI50 in the experiment with CAKI-1, in the experiment with SNB-19, with SK-MEL-28, in the experiment on SF-539, in the experiment with A549 and in the experiment with HL-60 was > 100 µM (inactive) in each case. The GI50 in the experiment on Malme-3M, with HCC 2998, in the experiment with M14, in the experiment with SR, in the experiment on SK-OV-3 and in the experiment with NCI-H226 was > 100 µM (inactive) throughout. Further, the GI50 with HOP-92 was > 100 µM (inactive); with NCI-H23, > 100 µM (inactive); with IGROV-1 it was > 100 µM (inactive); in the experiment with MDA-N, > 100 µM (inactive); in the experiment with HCT-116, > 100 µM (inactive); with NCI-H522, 38.6 µM (inactive).
Regarding `Cc1ccc(S(=O)(=O)NC(=O)Nc2ccc(C(=O)O)c(O)c2)cc1`, the GI50 in the experiment with CAKI-1, with SNB-19, with SF-539, in the experiment on Hs-578T, with A549 and in the experiment with HL-60 was > 100 µM (inactive) in each case. Also, the GI50 in the experiment on Malme-3M, with HCC 2998, in the experiment with M14, with SR, in the experiment on SK-OV-3 and in the experiment with NCI-H226 was > 100 µM (inactive) throughout. Further, the GI50 in the experiment with HOP-92, with NCI-H23 and in the experiment on HCT-116 was > 100 µM (inactive) throughout.
`CN1C(CC(O)c2ccccc2)CCCC1CC(O)(c1ccccc1)c1ccccc1` (configuration not stated): the GI50 was 75.2 µM (inactive) in the experiment with CAKI-1; 17.1 µM (inactive) in the experiment with SNB-19; 16 µM (inactive) in the experiment with SK-MEL-28; 13.6 µM (inactive) in the experiment with SF-539; 22.1 µM (inactive) in the experiment with A549; 17.3 µM (inactive) in the experiment with HL-60. Further, the GI50 was 18.2 µM (inactive) with Malme-3M; 22.9 µM (inactive) in the experiment with HCC 2998; 16.8 µM (inactive) with M14; 18.7 µM (inactive) in the experiment on SR; 21.4 µM (inactive) in the experiment with SK-OV-3; 21.1 µM (inactive) in the experiment on NCI-H226. Further, the GI50 in the experiment on NCI-H23 is 16.7 µM (inactive); in the experiment on IGROV-1, 17.2 µM (inactive); in the experiment with MDA-N, 18.5 µM (inactive); in the experiment on HCT-116, 14.9 µM (inactive); with NCI-H522, 19.9 µM (inactive).
For `COc1ccc2c(c1)C/C(=C\c1ccc(O)c(OC)c1)C2=O`, the GI50 in the experiment with CAKI-1, in the experiment on SNB-19, in the experiment with SK-MEL-28, in the experiment with SF-539, with Hs-578T and with A549 was > 100 µM (inactive) throughout. The GI50 with HL-60, in the experiment with HCC 2998, in the experiment on M14, in the experiment with SR, in the experiment with SK-OV-3 and with NCI-H226 was > 100 µM (inactive) throughout. Also, the GI50 in the experiment on NCI-H23 is > 100 µM (inactive); in the experiment with IGROV-1, > 10 µM (inactive).
As to `CCOC(=O)CCC(NC(=O)c1ccc(NCc2ccc3nc(OC)c(OC)nc3c2)c2ccccc12)C(=O)OCC` (configuration not stated), the GI50 is > 100 µM (inactive) in the experiment on CAKI-1; 76.2 µM (inactive) in the experiment on SNB-19; > 100 µM (inactive) in the experiment on SK-MEL-28; 20.8 µM (inactive) in the experiment with SF-539; > 100 µM (inactive) with A549; 0.0836 µM (active) with HL-60. Moreover, the GI50 was > 100 µM (inactive) in the experiment with Malme-3M; > 100 µM (inactive) in the experiment on HCC 2998; > 100 µM (inactive) in the experiment on M14; 31 µM (inactive) in the experiment on SK-OV-3; > 100 µM (inactive) in the experiment with NCI-H226; 16.2 µM (inactive) with HOP-92. The GI50 was > 100 µM (inactive) in the experiment on NCI-H23; 31.8 µM (inactive) with IGROV-1; > 100 µM (inactive) with MDA-N; > 100 µM (inactive) with HCT-116; > 100 µM (inactive) in the experiment on NCI-H522.
Consider `NC1CC(=O)c2sc(I)cc21` (configuration not stated), for which the GI50 was 40.3 µM (inactive) with CAKI-1; > 100 µM (inactive) with SNB-19; > 100 µM (inactive) in the experiment on SK-MEL-28; > 100 µM (inactive) in the experiment with SF-539; > 100 µM (inactive) in the experiment with A549; 18.7 µM (inactive) with HL-60. The GI50 with Malme-3M was > 100 µM (inactive); in the experiment on HCC 2998, > 100 µM (inactive); in the experiment on M14 it was > 100 µM (inactive); with SR, 8.39 µM (inactive); in the experiment on SK-OV-3, > 100 µM (inactive); in the experiment on IGROV-1, > 100 µM (inactive). Moreover, the GI50 was > 100 µM (inactive) in the experiment on MDA-N and 78.9 µM (inactive) in the experiment on HCT-116.
